According to publication PMC13091788 (NPJ Aging, 2026):

Tests used:
[1] = set-up: method as in PMID 24593257; conditions: cited from earlier work
[2] = system: 24-month-old male C57BL/6 N mice; experiment: Age-related cardiac dysfunction in aged mice; format: in vivo, mouse
From the text: All experimental procedures were approved by the Ethics Review Committee for Animal Experimentation at Kumamoto University, Kumamoto, Japan (approval No. A 2024-083). Procedures followed the guidelines and recommendations outlined by the ILAR Guide for the Care and Use of Laboratory Animals (8th Edition, 2011). Prior to tissue collection, mice were euthanized under isoflurane anesthesia, followed by cervical dislocation to ensure rapid euthanasia, a procedure also employed during sacrifice for tissue harvesting. Euthanasia was performed when animals met the established criteria for humane endpoints, specifically a body weight loss exceeding 20% over a 3-day period or 25% over a 1-week period, in accordance with the Kumamoto University Ethics Review Committee for Animal Experimentation above. All animals fed a normal diet (CE-2, CLEA) were randomly assigned to two groups: tap water only and tap water supplemented with AcA-BRB (0.5 mg/mL). Mice were housed in an animal facility with lighting cycles automatically controlled (12 h light/12 h dark), maintained at a stable temperature of 22 ± 2 °C and a relative humidity of 40–80%. C57BL/6NJcl wild-type (WT) male mice aged 2, 20, and 24 months were used in this study. Mice were preconditioned by chest hair removal with a topical depilatory (FUJIFILM VisualSonics), anesthetized with 1.5–2.5% isoflurane administered via inhalation, and maintained in a supine position on a dedicated animal handling platform with limbs immobilized for electrocardiogram gating during imaging. Body temperature was kept constant by relaying signals from a rectal probe to a heating pad, while heart and respiratory rates were continuously monitored. Transthoracic echocardiography was performed using a high-frequency ultrasound system dedicated to small-animal imaging (VisualSonics Vevo 3100, FUJIFILM VisualSonics) using a MS 400 linear array transducer (18–38 MHz). M-mode recording was performed at the midventricular level in the short-axis view. All images were analyzed using dedicated software (Vevo LAB version 5.7.1). LV wall thickness and internal cavity diameters at diastole (LVID;d) and systole (LVID;s) were measured. Percent LV fractional shortening (%FS) and Left Ventricular Ejection Fraction (LVEF) was calculated from M-mode measurements. To analyze cardiac diastolic function, trans-mitral flow velocity patterns and early diastolic mitral annular velocity (e’) were measured in the four-chamber view to calculate the ratio of early trans-mitral flow velocity (E) to e’ (E/e’). All procedures were performed under double-blind conditions with regard to genotype or treatment. Total RNA was extracted using a RNeasy Mini Kit (Qiagen). DNase-treated RNA was reverse-transcribed using a PrimeScript RT reagent Kit (Takara Bio). Heart tissue was homogenized using a multi-beads shocker (Yasui Kikai). Real-time quantitative RT-PCR was performed using TB Green Premix Ex Taq II (Takara Bio), and a Thermal Cycler Dice Real-Time System (Takara Bio). Relative transcript abundance was normalized to 18S rRNA levels. Primer sets used for RT-PCR are listed in Supplementary Table 3.

[3] = system: high-fat diet (HFD32)-fed mice; experiment: Survival analysis in high-fat diet-fed mice; format: in vivo, mouse; conditions: 0.5 mg/mL in drinking water from 60 weeks old, HFD32 from 8 weeks of age
Procedure: For survival analysis under metabolic stress conditions, two-month-old C57BL/6NJcl male mice fed a high-fat diet (HFD 32: water 6.2%, protein 25.5%, fat 32.0%, ash 4.0%, carbohydrate 29.4%, fiber 2.9%, providing 507.6 kcal/100 g; CLEA) were randomly assigned to two groups: tap water only and tap water supplemented with AcA-BRB (0.5 mg/mL).

[4] = system: mitochondria isolated from hearts of aged mice; experiment: Oxygen consumption analysis of isolated cardiac mitochondria; format: in vivo, mouse; conditions: AcA-BRB 0.5 mg/mL in drinking water
Procedure: Mouse heart tissue was homogenized in mitochondrial isolation buffer (210 mM mannitol, 70 mM sucrose, 5 mM HEPES-KOH, 1 mM EGTA, 0.5% fatty acid-free BSA, pH 7.2) using a glass-teflon homogenizer. Homogenates were centrifuged at 27,000 × g for 10 min at 4 °C, and the resulting pellets were resuspended in mitochondrial isolation buffer. Samples were centrifuged at 500 × g for 5 min at 4 °C, and the supernatants were collected and centrifuged at 10,000 × g for 5 min at 4 °C. The pellet was then resuspended in mitochondrial isolation buffer and centrifuged for 5 min at 10,000 × g at 4 °C. The resulting pellets were suspended in BSA-free mitochondrial isolation buffer, and mitochondrial protein concentration was determined using the Bio-Rad Protein Assay Dye Reagent (Bio-Rad Laboratories). Samples were then incubated with an equal volume of mitochondrial isolation buffer and subjected to oxygen consumption analysis.
Isolated mitochondria were diluted with mitochondrial assay solution (220 mM mannitol, 70 mM sucrose, 2 mM HEPES-KOH, 1 mM EGTA, 10 mM KH2PO4, 5 mM MgCl2, 0.2% fatty acid-free BSA, 2 mM malate, 10 mM pyruvate, pH 7.2) to 80 μg/mL. […] OCR was measured under basal conditions and after each injection using an XFe24 extracellular flux analyzer (Seahorse Bioscience).

[5] = AcA-BRB 0.5 mg/mL in drinking water, 24-month-old mice, vs control
[6] = AcA-BRB 0.5 mg/mL in drinking water, aged mice

COc1ccc2cc3n(cc-2c1=O)CCc1cc2c(cc1-3)OCO2 [Q-BRB, quinoid-type berberrubine]
lipophilicity [1]: very high

COc1ccc2cc3[n+](cc2c1O)CCc1cc2c(cc1-3)OCO2 [berberrubine]
blood pressure and heart rate vs control mice ([2]; 24-month-old mice, 3 months of treatment with AcA-BRB): comparable | age-related progression of left ventricular dilatation, systolic dysfunction and diastolic dysfunction (echocardiography) ([2]; AcA-BRB 0.5 mg/mL in drinking water, 24-month-old mice, after 12 weeks, vs control): ameliorated | cardiac hypertrophy (HW/TL ratio, histology) and pulmonary congestion (LW/TL ratio) [2, 5]: improved | upregulation of genes associated with heart failure and cardiac fibrosis (qRT-PCR, heart) [2, 5]: blocked | LC3A/B II/I ratio in heart tissues (western blot) [2, 6]: increase | expression of genes associated with ROS-scavenging systems (heart) [2, 6]: upregulated | expression of genes associated with mitochondrial biogenesis, dynamics and mitophagy (heart) [2, 6]: significantly increased | p62 levels in heart tissues (western blot) [2, 6]: decrease | lifespan compared with control mice [3]: significantly prolonged | ROS production (4-HNE in isolated cardiac mitochondria) [4]: mild rise | OCR of mitochondria isolated from hearts ([4]; vs controls): improved
